From patent publication US20240294467A1, “USP9X Inhibitors” (ProDeg, LLC, priority 2021, published 2024)
Like-named read-outs stand apart in the source and are kept apart here. Residues, ends and D or L forms follow the SMILES beside them. *: point of attachment. Cbz = O=C(OCc1ccccc1)*

Assays:
MDA-MB-231 cells = assay: WST-1 cell viability assay; type: cell-based; details: Homo sapiens
Description: (§1) Compound Compound 9A was tested for the ability to inhibit the proliferation of Mia-Paca-2 pancreatic cancer cells. Mia-Paca-2 and MDA-MB-231 cells were seeded into the wells of a 96 well tissue culture plate in complete medium (10% fetal calf serum) and incubated overnight at 37° C./5% CO2). The medium was exchanged for fresh medium containing varying concentrations of Compound 9A and the plate was incubated for 72 hours at 37° C./5% CO2. The viability of cells at the end of this incubation was assessed with the WST-1 reagent. To 10 ml of warm (37° C.) complete medium, 1 ml WST-1 reagent was added. The medium from the wells of the plate with the Mia-Paca-2 cells was removed and replaced with 100 μL of the WST-1 reagent in complete medium. The plate was incubated at 37 37° C./5% CO2. At timed intervals the absorbance at 450 nm was determined for each well in a UVNis plate reader. For each well the slope of the plot of the absorbance 450 nm vs time was determined. The readings were normalized to that of the wells for the untreated control and a dose-response curve was plotted. A fit to the data was made from a four parameter, variable slope program (GraphPad Prism) and the IC50 was determined.
The TNBC cell line MDA-MB-231 express high levels of Mcl-1 and USP9X in addition to Bcl-2 and Bcl-xL. MDA-MB-231 cells were treated with ABT737 for 72 hours at varying concentrations and underwent western blot analysis.

U937 cells = assay: WST-1 cell viability assay; type: cell-based; details: Homo sapiens, U-937, U937 cells
Description: as §1
The effect of Compound 7A on U937 cells was assessed using the same experiment described in the Inhibitory Activities against the Proliferation of Mia-Paca-2 and Other Cancer Cells section above. In response to treatment with Compound 7A, proliferation of U937 leukemia cells was inhibited and induced apoptosis was obsessed by trypan blue staining.
U937 cells were treated with the Bcl-2/Bcl-xL inhibitor ABT737 72 hours at varying concentrations and underwent western blot analysis.

[1] = test system: Mia-Paca-2 pancreatic cancer cells; assay: WST-1 cell viability assay; type: cell-based; details: for cell viability: Mia-Paca-2 pancreatic cells
Description: as §1
(§2) The same procedures were also applied to the compounds Compound 7A, Compound 6A, and Compound 8A to test their inhibitory activities against RKO colon, Mia-Paca-2 pancreatic and BT-549 cancer cells.

RKO colon cells = assay: WST-1 cell viability assay; type: cell-based
Description: as §1, §2

BT-549 cancer cells = assay: WST-1 cell viability assay; type: cell-based, human; details: BT-549 cells
Description: as §1, §2

USP9X [2] = molecular target: T1, USP9X (Homo sapiens (Human), UniProt Q93008); assay: Steady-state enzyme inhibition kinetics of USP9X; type: biochemical
Excerpt: The data were fit to a general model for enzyme inhibition (FIG. 1E) so the values of the parameters determined from the assays specified the mode of inhibition. For example, in the case of α=1 and β=0, it corresponded to purely non-competitive inhibition. For α=infinity and p=1, it corresponded to purely competitive inhibition. The values of all the parameters, KS, KI, kcat, α, and β could be determined from the steady state measurements. The enzyme reactions were set up as described in the Inhibiting the catalytic activity of USP9X section. The concentration of the substrate ubqiutin-rhodamine110 was varied. The initial rates of the reactions were determined at several concentrations of the inhibitor Compound 2A. In order to determine the values of the parameters KS and kcat, the reaction rates in the absence of the inhibitor Compound 2A, the initial reaction rate data were fit to the standard Michaelis-Menten equation v=Vmax [S]/(Km+[S]). The values of α and β could then be determined by fitting the initial rate data of the enzyme reaction at various concentrations of Compound 2A to a modified version of the Michaelis-Menten equation, designating both Vmax and KS apparent to distinguish the apparent values of the parameters determined from these plots to the true values for these parameters determined from the steady state kinetics in the absence of Compound 2A. The values of α and β could be determined from the variation of the slopes and intercepts of the series of double reciprocal plots of 1/v versus 1/[S] for each concentration of Compound 2A. […] The two values determined for KI were from the two different plots.
The two values for KI were determined by two different methods for determining this parameter from the kinetic data: 1 represented a value determined from the slope of the 1/A intercept vs 1/[I] plot; 2 represented a value determined from the y intercept of the 1/A slope vs 1/[I] plot. […] Only the values of the parameters varied for the compounds.
Target sequence in this assay (Q93008 whole entry): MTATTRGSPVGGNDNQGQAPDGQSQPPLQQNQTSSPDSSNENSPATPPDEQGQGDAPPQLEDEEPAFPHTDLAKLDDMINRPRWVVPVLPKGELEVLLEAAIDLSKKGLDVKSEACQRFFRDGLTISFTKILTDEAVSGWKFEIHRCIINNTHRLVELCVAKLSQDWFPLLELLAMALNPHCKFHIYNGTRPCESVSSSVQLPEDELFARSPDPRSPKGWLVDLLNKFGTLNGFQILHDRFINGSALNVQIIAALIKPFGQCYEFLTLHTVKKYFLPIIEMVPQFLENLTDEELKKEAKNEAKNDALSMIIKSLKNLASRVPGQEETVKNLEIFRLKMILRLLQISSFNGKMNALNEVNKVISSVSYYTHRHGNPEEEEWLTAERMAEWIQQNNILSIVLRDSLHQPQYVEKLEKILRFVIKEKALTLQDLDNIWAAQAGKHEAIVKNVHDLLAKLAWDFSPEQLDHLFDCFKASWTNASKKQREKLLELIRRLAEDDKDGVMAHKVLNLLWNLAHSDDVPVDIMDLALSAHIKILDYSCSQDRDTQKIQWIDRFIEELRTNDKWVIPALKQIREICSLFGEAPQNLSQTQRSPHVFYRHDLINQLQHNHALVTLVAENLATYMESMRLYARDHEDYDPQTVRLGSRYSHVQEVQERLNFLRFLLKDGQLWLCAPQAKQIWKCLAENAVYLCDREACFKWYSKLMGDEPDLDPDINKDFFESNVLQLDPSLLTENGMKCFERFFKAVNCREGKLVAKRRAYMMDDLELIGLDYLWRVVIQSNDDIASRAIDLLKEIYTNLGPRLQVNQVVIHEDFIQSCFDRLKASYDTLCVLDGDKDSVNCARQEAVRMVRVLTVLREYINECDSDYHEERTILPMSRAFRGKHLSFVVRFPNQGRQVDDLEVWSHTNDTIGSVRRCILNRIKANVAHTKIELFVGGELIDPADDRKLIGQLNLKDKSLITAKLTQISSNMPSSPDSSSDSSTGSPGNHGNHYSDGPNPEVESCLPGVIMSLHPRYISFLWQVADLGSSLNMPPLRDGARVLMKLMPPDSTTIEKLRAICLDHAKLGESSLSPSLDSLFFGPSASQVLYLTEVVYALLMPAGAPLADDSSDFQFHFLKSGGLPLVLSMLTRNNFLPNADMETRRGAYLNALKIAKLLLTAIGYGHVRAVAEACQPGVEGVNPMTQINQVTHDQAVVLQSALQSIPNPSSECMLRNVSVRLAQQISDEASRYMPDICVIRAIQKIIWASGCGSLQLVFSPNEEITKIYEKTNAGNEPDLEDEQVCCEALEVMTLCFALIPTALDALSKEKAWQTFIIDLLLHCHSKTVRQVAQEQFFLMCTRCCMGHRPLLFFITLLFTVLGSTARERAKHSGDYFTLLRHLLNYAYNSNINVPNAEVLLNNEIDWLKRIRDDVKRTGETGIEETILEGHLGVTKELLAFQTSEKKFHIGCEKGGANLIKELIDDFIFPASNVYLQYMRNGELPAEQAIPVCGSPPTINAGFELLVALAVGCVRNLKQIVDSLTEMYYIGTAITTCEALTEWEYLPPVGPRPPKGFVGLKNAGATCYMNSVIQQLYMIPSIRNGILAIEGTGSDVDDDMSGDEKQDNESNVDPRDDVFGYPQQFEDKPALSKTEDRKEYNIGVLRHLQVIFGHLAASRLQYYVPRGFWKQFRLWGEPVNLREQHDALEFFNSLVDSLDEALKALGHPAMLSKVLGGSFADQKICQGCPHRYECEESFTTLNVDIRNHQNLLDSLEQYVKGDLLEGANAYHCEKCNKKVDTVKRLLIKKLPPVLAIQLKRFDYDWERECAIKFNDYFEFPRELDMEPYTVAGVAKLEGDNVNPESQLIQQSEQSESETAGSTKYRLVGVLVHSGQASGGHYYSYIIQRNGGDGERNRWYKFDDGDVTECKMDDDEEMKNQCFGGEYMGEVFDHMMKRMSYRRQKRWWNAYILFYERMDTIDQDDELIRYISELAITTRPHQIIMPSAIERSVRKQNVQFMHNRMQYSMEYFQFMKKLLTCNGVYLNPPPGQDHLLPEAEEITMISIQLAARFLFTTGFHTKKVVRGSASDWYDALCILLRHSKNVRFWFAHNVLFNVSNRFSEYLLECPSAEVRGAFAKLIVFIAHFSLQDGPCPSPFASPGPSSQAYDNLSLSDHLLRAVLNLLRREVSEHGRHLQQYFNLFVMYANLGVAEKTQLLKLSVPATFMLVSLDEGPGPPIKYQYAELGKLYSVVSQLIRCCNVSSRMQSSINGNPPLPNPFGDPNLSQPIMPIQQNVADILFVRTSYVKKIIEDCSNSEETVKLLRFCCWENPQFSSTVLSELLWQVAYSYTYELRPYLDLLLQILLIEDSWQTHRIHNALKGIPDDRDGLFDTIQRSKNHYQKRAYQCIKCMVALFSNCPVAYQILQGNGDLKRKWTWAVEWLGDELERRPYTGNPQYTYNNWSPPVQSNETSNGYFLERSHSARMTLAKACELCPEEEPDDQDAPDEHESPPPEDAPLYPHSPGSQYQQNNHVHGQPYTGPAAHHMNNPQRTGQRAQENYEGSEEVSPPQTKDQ

USP9X [3] = molecular target: T1, USP9X; assay: USP9X enzyme activity assay, ubiquitin-rhodamine110 substrate
Target sequence in this assay (Q93008 whole entry): as above
Description: The inhibition property of compound Compound 1A was evaluated in assays measuring the ability of USP9X to catalyze the hydrolysis of the amide bond between the C terminal carboxylate of ubiquitin and rhodamine110 of the fluorogenic substrate ubiquitin-rhodamine 110. To the wells of a 96 well reaction plate was added 12.5 μL USP9X solution (1.3 nM) in assay buffer (100 mM NaCl, 1 mM DTT, 0.1% bovine serum albumin, 0.05% Tween 20, 50 mM Tris, pH 7.5). 12.5 μL of Compound 1A in assay buffer (4×final concentration) was added to the wells containing the USP9X solution, and the solution was gently mixed by pipetting up and down several times. The plate was sealed and incubated at room temperature for 20 minutes.
Then 25 μL of the 1 μM substrate (ubiquitin-rhodaminel10) solution was added in assay buffer. The final substrate concentration was 0.5 μM. […] The slope for the rate of change of the fluorescence was determined and plotted vs the concentration of Compound 1A.
USP9X enzyme assays were set up in a 96 well plate to assess the abilities of Compound 3A and Compound 4A to inhibit the activity of USP9X, respectively. Ubiquitin-rhodamine110 was used as the substrate and ubiquitin aldehyde was included in the assay as a positive control.
Purified recombinant USPx9 (R&D Systems) in 50 mM Tris buffer pH 7.5, 1 mM DTT, 100 mM NaCl, 0.05% Tween 20 and 0/1% BSA is used at a concentration of 0.325 nM with 0.5 μM ubiquitin-rhodamine (R&D Systems).

USP5 = USP5 (Homo sapiens (Human), UniProt P45974); details: cited from earlier work
USP24 = USP24 (Homo sapiens (Human), UniProt Q9UPU5); details: cited from earlier work
USP9X [4] = molecular target: T1, USP9X; details: cited from earlier work
Target sequence in this assay (Q93008 whole entry, species assumed): as the sequence (Q93008 whole entry) above

Mcl-1 = assay: Western blot of Mcl-1 in U937 cells; type: cell-based; details: agent alone
Description: After 24 hours treatment with Compound 7A, U937 cells were collected by centrifugation and whole cell lysates were prepared. These lysates were analyzed by Western blot to determine the level of Mcl-1. Western blot analysis was carried out as previously described (Wang et al., 2014 Journal of the American Society of Nephrology DOI: 10.1681/asn.2013060665). The band intensity for Mcl-1 in these samples were normalized to that of tubulin to correct for any inconsistencies in total protein in loading and processing the whole cell lysates.
To investigate the mechanism of action, Western blot analysis was carried out to test the induced degradation of USP9X substrate Mcl-1 by the compounds under the effects of protein synthesis inhibitor cycloheximide and/or proteasome inhibitor MG132. U937 cells were treated with 10 μM cycloheximide for one hour, with 10 μM MG132 for one hour, with the combination of 10 μM cycloheximide and 10 μM MG132 for one hour, and with vehicle (DMSO) for one hour, respectively, prior to the treatment with Compound 5A for 24 hrs. The U937 cells were harvested after treatment and whole cell lysates were prepared. These lysates were analyzed by Western blot to determine the abundance of Mcl-1 as well as that of tubulin as a normalization control. […] The band intensity of the Mcl-1 in cells treated with cycloheximide alone (Lane 2) was reduced relative to that for tubulin. […] Global blockade of protein synthesis by cycloheximide led to a significant decrease in the expression levels, especially for short lived Mcl-1. The retention of a reduced portion of Mcl-1 indicated the immunity of this portion to proteasomal degradation. […] In contrast, the band intensity of Mcl-1 relative to that of tubulin increased upon treatment of U937 cells with the proteasome inhibitor MG132 (Lane 4). […] Together, the results of this Example are consistent with the compounds acting on the proposed mechanism that intracellular inhibition of the deubiquitylase activity of USP9X blocks its ability to rescue USP9X substrates such as Mcl-1 from proteasomal degradation. In other aspects, by varying the concentration ratios of the compound and proteasome inhibitor for treating cells, it was possible to achieve controlled degradation of a USP9X substrate so the substrate could decline to a desirable level rather than degrade entirely.

[5] = 72 hours, single agent, read-out: IC50, cell viability
[6] = read-out: USP9X IC50/UM, Table 8

Sequence of USP5 (P45974 whole entry, species assumed): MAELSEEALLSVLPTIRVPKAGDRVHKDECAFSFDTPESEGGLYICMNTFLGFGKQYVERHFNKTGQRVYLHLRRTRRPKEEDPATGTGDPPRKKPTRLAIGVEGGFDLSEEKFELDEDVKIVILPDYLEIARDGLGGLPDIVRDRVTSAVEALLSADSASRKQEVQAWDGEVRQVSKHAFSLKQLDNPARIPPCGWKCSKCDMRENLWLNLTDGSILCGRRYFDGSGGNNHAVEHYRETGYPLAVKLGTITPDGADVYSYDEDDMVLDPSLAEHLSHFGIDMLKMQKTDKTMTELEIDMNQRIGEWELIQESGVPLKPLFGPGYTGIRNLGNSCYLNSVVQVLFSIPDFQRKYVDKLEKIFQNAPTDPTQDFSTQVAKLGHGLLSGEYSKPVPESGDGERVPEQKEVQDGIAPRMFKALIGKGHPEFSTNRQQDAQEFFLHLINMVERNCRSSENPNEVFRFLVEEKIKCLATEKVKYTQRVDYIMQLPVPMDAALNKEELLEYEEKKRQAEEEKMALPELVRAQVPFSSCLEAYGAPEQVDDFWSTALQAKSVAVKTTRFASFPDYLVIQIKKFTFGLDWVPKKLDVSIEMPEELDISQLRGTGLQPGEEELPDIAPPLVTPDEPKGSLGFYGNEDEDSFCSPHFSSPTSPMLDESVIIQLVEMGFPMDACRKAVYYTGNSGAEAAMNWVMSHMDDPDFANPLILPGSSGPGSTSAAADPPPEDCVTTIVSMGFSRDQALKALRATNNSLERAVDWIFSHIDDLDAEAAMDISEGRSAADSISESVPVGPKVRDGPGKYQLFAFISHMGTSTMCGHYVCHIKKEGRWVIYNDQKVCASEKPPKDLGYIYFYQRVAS

## CN(C)CC[C@H](CSc1ccccc1)Nc1ccc(S(=O)(=O)NC(=O)c2ccc(N3CCN(Cc4ccccc4-c4ccc(Cl)cc4)CC3)cc2)cc1[N+](=O)[O-] [ABT737, reference compound]
MDA-MB-231 cells; [5]
  IC50: 8700 nM
MDA-MB-231 cells; co-treated with 10 μM Compound 5A, read-out: IC50 of ABT737 with co-treatment
  IC50: 1800 nM
U937 cells; 72-hour treatment, single agent, read-out: IC50, cell viability
  IC50: 3400 nM
U937 cells; with 0.5 μM Compound 7A, read-out: IC50 of ABT737 with co-treatment
  IC50: 60 nM

## CN1CCCCOc2ccc(cc2)C(=O)NCc2cccc(c2)C(=O)N[C@@H](CC(C)(C)C)C(=O)Nc2ccc(cc2)CCC1=O [Compound 6A]
[1]
  cell viability: significant decreases
RKO colon cells
  cell viability: significant decreases
BT-549 cancer cells
  cell viability: significant decreases

## CN1CCCCOc2ccc(cc2)C(=O)NCc2ccc(F)c(c2)C(=O)N[C@@H](CC(C)(C)C)C(=O)Nc2ccc(cc2)CCC1=O [Compound 8A]
[1]
  cell viability: significant decreases
RKO colon cells
  cell viability: significant decreases
BT-549 cancer cells
  cell viability: significant decreases

## CN1CCOc2ccc(c(F)c2)C(=O)NCc2cccc(c2)C(=O)N[C@@H](CC(C)(C)C)C(=O)Nc2ccc(cc2)CCN(C)C(=O)CC(C)(C)CC1=O [Compound 9A]
MDA-MB-231 cells; [5]
  IC50: 2000 nM
[1]; Homo sapiens, Mia-Paca-2 cells, 72 hours, read-out: IC50, inhibition of proliferation
  IC50: 10 nM

## CN1CCOc2ccc(c(F)c2)C(=O)NCc2ccc(F)c(c2)C(=O)N[C@@H](CC(C)(C)C)C(=O)Nc2ccc(cc2)CCN(C)C(=O)CC(C)(C)CC1=O [Compound 11A]
USP9X [2]
  KS: 0.91 µM
  VMAX RFU/min: 408 RFU/min
  α: 2
  β: 0.88
USP9X [2]; from the slope of the 1/Δ intercept vs 1/[I] plot, read-out: KI, nM (1)
  Ki: 7 nM
USP9X [2]; from the y intercept of the 1/Δ slope vs 1/[I] plot, read-out: KI, nM (2)
  Ki: 69 nM
USP9X [3]; read-out: IC50 for the inhibition of USP9X activity, ubiquitin-rhodamine110 substrate
  IC50: 48 nM
USP9X [3]; read-out: USP9X IC50 nM, Table 2
  IC50: 48 nM

## CC(=O)Nc1ccc(CCNC(=O)CC(C)(C)CC(=O)NCCOc2ccc(C(=O)NCc3cccc(C(=O)N[C@@H](CC(C)(C)C)C(=O)O)c3)cc2)cc1 [Compound 67]
USP9X [3]; Table 8
  USP9X IC50/UM: >50 UM

## CNC(=O)[C@H](CC(C)(C)C)NC(=O)c1cccc(CNC(=O)c2ccc(OCCNC(=O)CC(C)(C)CC(=O)NCCc3ccc(NC(C)=O)cc3)cc2)c1 [Compound 68]
USP9X [3]; Table 8
  USP9X IC50/UM: >50 UM

## CC(C)(C)C[C@H](N)C(=O)Nc1ccc(CCNC(=O)CC(C)(C)CC(=O)NCCOc2ccc(C(=O)NCc3cccc(C(=O)O)c3)cc2)cc1 [Compound 69]
USP9X [3]; Table 8
  USP9X IC50/UM: >50 UM

## CC(=O)N[C@@H](CC(C)(C)C)C(=O)Nc1ccc(CCNC(=O)CC(C)(C)CC(=O)NCCOc2ccc(C(=O)NCc3cccc(C(=O)O)c3)cc2)cc1 [Compound 70]
USP9X [3]; Table 8
  USP9X IC50/UM: >50 UM

## CNC(=O)c1cccc(CNC(=O)c2ccc(OCCNC(=O)CC(C)(C)CC(=O)NCCc3ccc(NC(=O)[C@H](CC(C)(C)C)NC(C)=O)cc3)cc2)c1 [Compound 71]
USP9X [3]; Table 8
  USP9X IC50/UM: >50 UM

## CC(C)(C)C[C@H](NC(=O)c1cccc(CN)c1)C(=O)Nc1ccc(CCNC(=O)CC(C)(C)CC(=O)NCCOc2ccc(C(=O)O)cc2)cc1 [Compound 72]
USP9X [3]; [6]
  IC50: 29000 nM

## CC(=O)NCc1cccc(C(=O)N[C@@H](CC(C)(C)C)C(=O)Nc2ccc(CCNC(=O)CC(C)(C)CC(=O)NCCOc3ccc(C(=O)O)cc3)cc2)c1 [Compound 73]
USP9X [3]; [6]
  IC50: 15000 nM

## CNC(=O)c1ccc(OCCNC(=O)CC(C)(C)CC(=O)NCCc2ccc(NC(=O)[C@H](CC(C)(C)C)NC(=O)c3cccc(CNC(C)=O)c3)cc2)cc1 [Compound 74]
USP9X [3]; [6]
  IC50: 12000 nM

## CCCC(NC(=O)/C(C#N)=C/c1nc(Cl)ccc1Cl)c1ccc(OCCN2CCOCC2)cc1 (stereo not shown) [EOAI3402143]
USP5
  inhibits USP5: inhibits
USP24
  inhibits USP24: inhibits
USP9X [4]
  inhibits USP9X: inhibits

## CC(C)C[C@@H](C=O)NC(=O)[C@H](CC(C)C)NC(=O)[C@H](CC(C)C)NC(=O)OCc1ccccc1 [MG132, reference compound] (Cbz-Leu-Leu-Leu-aldehyde)
Mcl-1
  band intensity of Mcl-1 relative to tubulin: increased

## C[C@@H]1C[C@@H]([C@H](O)CC2CC(=O)NC(=O)C2)C(=O)[C@@H](C)C1 [cycloheximide, reference compound]
Mcl-1
  band intensity of Mcl-1 relative to tubulin: reduced

## ubiquitin aldehyde [reference compound]
USP9X [3]; ubiquitin-rhodamine110 substrate
  effect on USP9X activity: completely abolished
